The MIC is the lowest concentration found to suppress growth.

Structures are written as SMILES. Values after ≈ are worked out from the molar mass of the structure shown.

Holding throughout (type): functional
One assay deals with Klebsiella pneumoniae. Description: Antibacterial activity against Klebsiella pneumoniae RSKK 576 after 16 to 20 hrs by microdilution method. (In general: Dilution methods test growth across graded concentrations, often in twofold steps.)
The subject of assay [1] is Staphylococcus aureus. Description: Antibacterial activity against Staphylococcus aureus ATCC 29213 after 16 to 20 hrs by microdilution method.
The test system of assay [2] is Escherichia coli. Kind of assay: Antibacterial activity against Escherichia coli ATCC 25922 after 16 to 20 hrs by microdilution method.
The next assay relates to Enterococcus faecalis. Kind of assay: Antibacterial activity against Enterococcus faecalis ATCC 29212 after 16 to 20 hrs by microdilution method.
The subject of assay [3] is Staphylococcus aureus. Kind of assay: Antibacterial activity against Staphylococcus aureus.
The subject of assay [4] is Pseudomonas aeruginosa. Kind of assay: Antibacterial activity against Pseudomonas aeruginosa.
In assay [5] the test system is Pseudomonas aeruginosa. Description: Antibacterial activity against Pseudomonas aeruginosa ATCC 10145 after 16 to 20 hrs by microdilution method.
For assay [6], the system named is Escherichia coli. Kind of assay: Antibacterial activity against Escherichia coli.
Assay [7] has as its system Candida albicans. Kind of assay: Antifungal activity against Candida albicans.
Another assay deals with Bacillus subtilis. Description: Antibacterial activity against Bacillus subtilis.
Assay [8] relates to Candida albicans. Description: Antifungal activity against Candida albicans after 24 hrs by spectrophotometric method.
Assay [9] deals with Candida albicans. Kind of assay: Antifungal activity against Candida albicans after 24 hrs by disk diffusion method.
The subject of assay [10] is Staphylococcus aureus. Kind of assay: Antibacterial activity against Staphylococcus aureus ATCC 25923 after 24 hrs by disk diffusion method. The conditions noted are these: ATCC 25923, 24 h.
In assay [11] the test system is Escherichia coli. Description: Antibacterial activity against Escherichia coli ATCC 25922 after 24 hrs by disk diffusion method. The conditions noted are these: ATCC 25922, 24 h. For orientation: Agar diffusion results depend on both activity and mobility in agar.
The test system of assay [12] is Candida albicans. Kind of assay: Antifungal activity against Candida albicans CA-6 by micro-dilution method.
In another assay the test system is Saccharomyces cerevisiae. Kind of assay: Antifungal activity against Saccharomyces cerevisiae ATCC 9763 by micro-dilution method.
The next assay concerns Pichia kudriavzevii. Description: Antifungal activity against Candida krusei ATCC 6258 by micro-dilution method.

`CCOC(=O)CC1Oc2ccc(C(=O)OCC)cc2NC1=O` (stereo not given): the minimum inhibitory concentration (MIC) stood at 407 µM (≈ 125 µg/mL) against Klebsiella pneumoniae; 814 µM (≈ 250 µg/mL) in the assay on Staphylococcus aureus [1]; 407 µM (≈ 125 µg/mL) against Escherichia coli [2]; 407 µM (≈ 125 µg/mL) with Enterococcus faecalis; 159 µM (≈ 48.8 µg/mL) in the assay on Staphylococcus aureus [3]; 159 µM (≈ 48.8 µg/mL) with Pseudomonas aeruginosa [4]. In addition, the minimal inhibitory concentration (MIC) in the assay with Pseudomonas aeruginosa [5] turned out to be 407 µM (≈ 125 µg/mL); against Escherichia coli [6] it was 79.4 µM (≈ 24.4 µg/mL); in the assay with Candida albicans [7] it was 39.7 µM (≈ 12.2 µg/mL); in the assay on Bacillus subtilis, 79.4 µM (≈ 24.4 µg/mL).
In the case of `CCOC(=O)CC1Oc2ccc(F)cc2NC1=O` (stereo not given), the MIC in the assay with Klebsiella pneumoniae, with Staphylococcus aureus [1], with Escherichia coli [2], in the assay with Enterococcus faecalis and in the assay on Pseudomonas aeruginosa [5] was 1010 µM (≈ 256 µg/mL) in each case.
In the assay on Candida albicans [8], `COC(=O)c1ccc2c(c1)OC(O)C(=O)N2` (stereo not given) registered a minimal inhibitory concentration (MIC) of 4480 µM (≈ 1000 µg/mL).
In the case of `Cc1ccc2c(c1)OCC(=O)N2O`, the MIC in the assay with Candida albicans [9] amounted to 1860 µM (≈ 333 µg/mL); against Staphylococcus aureus [10], 1860 µM (≈ 333 µg/mL); in the assay on Candida albicans [8], 1950 µM (≈ 350 µg/mL); with Escherichia coli [11], 2790 µM (≈ 500 µg/mL).
As to `Cc1ccc2c(c1)OC(O)C(=O)N2O` (stereo not given), the MIC in the assay with Candida albicans [9] was 3410 µM (≈ 666 µg/mL); against Staphylococcus aureus [10], 2560 µM (≈ 500 µg/mL); with Escherichia coli [11] it was 3410 µM (≈ 666 µg/mL).
For `O=C1C(O)Oc2cc([N+](=O)[O-])ccc2N1O` (stereo not given), the values for the MIC in the assay on Candida albicans [9], with Staphylococcus aureus [10] and with Escherichia coli [11] were 6630 µM (≈ 1500 µg/mL), 734 µM (≈ 166 µg/mL) and 3680 µM (≈ 833 µg/mL), respectively.
Consider `CCOC(=O)CC1Oc2ccc(-c3ccccc3)cc2NC1=O` (stereo not given), for which the MIC came to 411 µM (≈ 128 µg/mL) with Klebsiella pneumoniae; 411 µM (≈ 128 µg/mL) in the assay with Staphylococcus aureus [1]; 411 µM (≈ 128 µg/mL) in the assay on Escherichia coli [2]; 206 µM (≈ 64 µg/mL) with Enterococcus faecalis; 411 µM (≈ 128 µg/mL) against Pseudomonas aeruginosa [5].
`CC(=O)ON1C(=O)C(O)Oc2ccccc21` (stereo not given) gave an MIC in the assay with Candida albicans [8] of 2980 µM (≈ 666 µg/mL).
Take `CCOC(=O)CC1Oc2ccc(S(=O)(=O)CC)cc2NC1=O` (stereo not given): the MIC was found to be 391 µM (≈ 128 µg/mL) in the assay with Klebsiella pneumoniae; 782 µM (≈ 256 µg/mL) with Staphylococcus aureus [1]; 391 µM (≈ 128 µg/mL) against Escherichia coli [2]; 391 µM (≈ 128 µg/mL) in the assay on Enterococcus faecalis; 391 µM (≈ 128 µg/mL) in the assay on Pseudomonas aeruginosa [5].
Regarding `CCOC(=O)CC1Oc2ccc(C(Cn3ccnc3)OCc3ccc(Cl)cc3)cc2N(C)C1=O` (stereo not given), the MIC came out at 915 µM (≈ 443 µg/mL) with Candida albicans [12], 915 µM (≈ 443 µg/mL) with Saccharomyces cerevisiae and 114 µM (≈ 55.3 µg/mL) in the assay on Pichia kudriavzevii.
Regarding `CCOC(=O)CC1Oc2cc([N+](=O)[O-])ccc2N(C)C1=O` (stereo not given), the MIC with Klebsiella pneumoniae stood at 949 µM (≈ 279 µg/mL); against Staphylococcus aureus [1], 949 µM (≈ 279 µg/mL); in the assay on Escherichia coli [2] it was 949 µM (≈ 279 µg/mL); in the assay on Enterococcus faecalis, 949 µM (≈ 279 µg/mL); against Staphylococcus aureus [3], 185 µM (≈ 54.6 µg/mL); with Pseudomonas aeruginosa [4] it was 92.7 µM (≈ 27.3 µg/mL). In addition, the MIC in the assay with Pseudomonas aeruginosa [5] worked out at 949 µM (≈ 279 µg/mL); with Escherichia coli [6], 92.7 µM (≈ 27.3 µg/mL); in the assay with Candida albicans [7], 46.4 µM (≈ 13.7 µg/mL); in the assay with Bacillus subtilis, 185 µM (≈ 54.6 µg/mL).
As for `CCOC(=O)CC1Oc2ccc([N+](=O)[O-])cc2NC1=O` (stereo not given), the MIC worked out at 457 µM (≈ 128 µg/mL) against Klebsiella pneumoniae; 914 µM (≈ 256 µg/mL) in the assay on Staphylococcus aureus [1]; 457 µM (≈ 128 µg/mL) with Escherichia coli [2]; 457 µM (≈ 128 µg/mL) against Enterococcus faecalis; 457 µM (≈ 128 µg/mL) with Pseudomonas aeruginosa [5].
For `O=C1COc2ccccc2N1`, the minimum inhibitory concentration (MIC) in the assay with Candida albicans [8] amounted to 6700 µM (≈ 1000 µg/mL).
On to `O=C1C(O)Oc2ccccc2N1O` (stereo not given), for which the MIC against Candida albicans [9] was 3680 µM (≈ 666 µg/mL); with Staphylococcus aureus [10], 2760 µM (≈ 500 µg/mL); in the assay with Candida albicans [8], 3680 µM (≈ 666 µg/mL); against Escherichia coli [11], 6900 µM (≈ 1250 µg/mL).
Regarding `O=C1COc2cc(F)ccc2N1O` [7-F-D-DIBOA], the MIC in the assay on Candida albicans [9] came to 2730 µM (≈ 500 µg/mL); against Staphylococcus aureus [10], 1820 µM (≈ 333 µg/mL); in the assay with Candida albicans [8] it was 2730 µM (≈ 500 µg/mL); in the assay with Escherichia coli [11] it was 4550 µM (≈ 833 µg/mL).
On to `COC(=O)c1ccc2c(c1)OCC(=O)N2O` [7-MeOCO-D-DIBOA], for which inhibition of growth in the assay with Staphylococcus aureus [10] (MIC) required 4480 µM (≈ 1000 µg/mL).

Values taken from ChEMBL document CHEMBL4382244, “QSAR of 1,4-benzoxazin-3-one antimicrobials and their drug design perspectives” (2018).
